# Laboratory results from ChEMBL document CHEMBL5528001, “Synthetic product-based approach toward potential antileishmanial drug development” (Eur J Med Chem, 2024).
# Legend:
# Leishmania infantum [1] = experiment: Antileishmanial activity against Leishmania infantum MHOM/FR/2008/LEM5700 infected in BALB/c mouse assessed as reduction of parasite burden in liver at 10 mg/kg, po administered for 5 days relative to control; format: functional; set-up: scale not given: the % may be the effect or the level left; details: time 5 day
# [2] = Cytotoxicity against human WI-38 cells assessed as reduction in cell viability incubated for 48 hrs by MTT assay; format: toxicity, cell-based
# Leishmania infantum [3] = experiment: Antileishmanial activity against Leishmania infantum amastigotes infected in human THP-1 cells assessed as reduction in parasite growth; format: functional, organism-based
# Leishmania major = experiment: Antileishmanial activity against Leishmania major MHOM/IR/-173 assessed as reduction in parasite viability measured for 48 hrs by alamar-blue dye based analysis; format: functional, organism-based; details: MHOM/IR/-173, 48 h
# Leishmania donovani [4] = experiment: Antileishmanial activity against Leishmania donovani MHOM/IN/95/9515 assessed as reduction in parasite growth measured for 72 hrs by resazurin dye based analysis; format: functional, organism-based; details: MHOM/IN/95/9515, 72 h
# [5] = Selectivity index, ratio of CC50 for cytotoxicity against HEK293 cells to IC50 for antileishmanial activity against Leishmania major IR-173 promastigotes; format: toxicity, cell-based; details: human, read-out: Ratio CC50/IC50
# Leishmania infantum [6] = experiment: Antileishmanial activity against Leishmania infantum LEM 3049 isolate promastigote assessed as reduction in parasite growth after 72 hrs by MTT assay; format: functional, organism-based; details: LEM 3049, 72 h
# HepG2 = experiment: Cytotoxicity against human HepG2 cells assessed as growth inhibition of cells measured for 48 hrs by MTT assay; format: functional, cell-based; details: HepG2, 48 h
# Leishmania infantum [7] = experiment: Antileishmanial activity against Leishmania infantum promastigote assessed as inhibition of parasite growth after 72 hrs by MTT assay; format: functional, organism-based
# Leishmania infantum [8] = experiment: Antileishmanial activity against Leishmanial infantum amastigotes assessed as inhibition of parasite growth measured after 72 hrs by MTT assay; format: functional, organism-based
# Leishmania donovani [9] = experiment: Antileishmanial activity against Leishmania donovani 9515 amastigotes assessed as inhibition of parasite growth incubated for 48 hrs by resazurin dye based assay; format: functional, organism-based; details: Leishmania donovani, 9515, 48 h
# [10] = Cytotoxicity against African green monkey Vero cells assessed as reduction in cell viability by MTT assay; format: toxicity, cell-based, Chlorocebus sabaeus
# Leishmania donovani [11] = experiment: Antileishmanial activity against Leishmania donovani promastigotes MHOM/SD/62/1S assessed as inhibition of cell growth measured after 48 hrs by resazurin dye based assay; format: functional, organism-based
# Leishmania donovani [12] = experiment: Antileishmanial activity against Leishmania donovani amastigotes MHOM/SD/62/1S assessed as inhibition of cell growth measured after 48 hrs by resazurin dye based assay; format: functional, organism-based
# Leishmania tropica = experiment: Antileishmanial activity against Leishmania tropica MHOM/A7/1974/SAF-K27 assessed as reduction in parasite growth incubated for 48 hrs by Neubauer hemocytometer analysis; format: functional, organism-based; details: MHOM/A7/1974/SAF-K27, 48 h
smiles,measurement,setting,value
COc1ccc(Br)cc1CN(C)C12CC3CC(CC(C3)C1)C2,Activity,Leishmania infantum [1],59%
same,CC50 at 48 h,[2],63.7 µM
same,IC50,Leishmania infantum [3],320 nM
Cc1ccc(Cn2cc(COC3=CC(=O)c4ccccc4C3=O)nn2)cc1,IC50,Leishmania major,1480 nM
same,IC50,Leishmania donovani [4],810 nM
same,selectivity ratio,[5],> 55
O=C(N/N=C1\C(=O)N(CC(O)COc2cc(=O)oc3ccccc23)c2ccccc21)c1ccncc1 (stereo not given),IC50,Leishmania infantum [6],30 nM
O=C(CCCc1cc2ccccc2[nH]1)Nc1nc2ccccc2c2ccccc12,IC50,HepG2,10 nM
same,EC50,Leishmania infantum [7],8.53 µM
same,EC50,Leishmania infantum [8],8.9 µM
O=C(N/N=C\c1ccc([N+](=O)[O-])o1)c1ccc(OS(=O)(=O)c2cccnc2)cc1,IC50,Leishmania donovani [9],90 nM
same,IC50,[10],3.26 µM
same,IC50,Leishmania donovani [11],90 nM
same,IC50,Leishmania donovani [12],90 nM
same,IC50,Leishmania tropica,40 nM
